Test results published in patent US10669588B2, “Methods for sub-typing and treating cancer” (HI-STEM GGMBH im Deutschen, priority 2014, dated 2020).
Where two headings read alike, the source gives them in different places.

Assays:
exocrine-like PACO cells = type: cell-based, human
Method: (§1) Quantitative results were analyzed by one-way analysis of variance (multiple groups/grouped analysis) and Student's t test (two groups), using GraphPad Prism (Graph Pad Software). Survival analysis was performed using Mantel-Cox log-rank test as well as Cox proportional hazards multivariate analysis using the Statistical Package for the Social Sciences (IPM SPSS software). Additionally, Pearson chi-squared test was used for comparative data analysis, using SPSS. We considered p<0.05 (two-sided) as statistically significant. For GSEA a False Discovery Rate (FDR) of <0.2 was considered statistically significant. Treatment data were evaluated by determining the activity area (Barretina et al., 2012) from each dose response curve by adding max (100-mean response, 0) for every concentration. Activity areas from the same biological replicate were compared by paired t-test. Calculations were performed in R Version 3.1.0 (Chee et al., 2013).

CYP3A5 [1] = assay: CYP3A5 mRNA (qRT-PCR) and protein (Western blot) expression in PACO cells after drug exposure; type: cell-based, human; conditions: for CYP3A5 mRNA expression in drug-resistant cell lines: PACO2, PACO7 after 8 weeks of increasing doses, vs control cell lines; for CYP3A5 expression in response to drug: QM-PDA (PACO9) and classical (PACO2) PACO lines, 10 μM drug; for CYP3A5 mRNA and protein expression in response to drug: exocrine-like PACO10, PACO14, 10 μM drug vs basal level
CYP3A5 [2] = assay: Measurement of conversion of erlotinib and dasatinib in cell supernatant (LC-MS/MS); type: in vitro ADME, human; conditions: 1 μM and 10 μM; for metabolism of drug in the absence of CYP3A5: CYP3A5 siRNA transfected exocrine-like PACO14, PACO18; for conversion of drug (disappearance of unmodified structure from supernatant): exocrine-like PACO14, PACO18, six time points
Method: In brief, the amount of unmodified dasatinib and erlotinib in the supernatant of cells was monitored by quantitative LC-MS/MS analysis on an AB Sciex QTrap 5500 tandem mass spectrometer.
500 μl of reaction media were quenched with 1,000 μL of acetonitrile at each time point and mixed. After centrifugation clear supernatants were pre-diluted with PACO media and acetonitrile at a ratio 1:25. 100 μL of the sample were transferred into a new vial, followed by addition of 10 μL (S)-(−)-Propranolol hydrochloride solution (105 μg/L) and finally vigorously mixed. 10 μL were injected onto column. Calibration and quality control samples were prepared by spiking either dasatinib or erlotinib to the PACO media. The sample was injected onto a PerfectSil Target ODS-3, 3 μm, 100×2.1 mm HPLC column (MZ-Analysentechnik, Mainz, Germany), using an Agilent 1100 (Agilent, Waldbrunn, Germany) binary pump and degasser, with a CTC PAL sampler (CTC Analytics, Zwingen, Switzerland). The column temperature was 35° C. Chromatographic separation was performed by gradient elution at a constant flow rate of 250 μL/min for 15 minutes. The gradient consisted of 20 mM NH4OAc plus 0.1% formic acid (mobile phase A) and 400 mM NH4OAc/methanol/acetonitrile 5:5:90 plus 0.1% formic acid (mobile phase B). The gradient applied was 0.0 min, 70% A/30% B; 1.5 min 70% A/30% B; 3.0 min 5% A/95% B; 11.0 min 5% A/95% B; 11.5 min 70% A/30% B and 15 min 70% A/30% B. The eluate was directed to an AB Sciex QTrap 5500 tandem mass spectrometer (AB Sciex, Darmstadt, Germany) with an electron spray ionization (ESI) source from 4 to 8 min runtime. Mass transitions of 488.1 to 401.1 for dasatinib, 394.0 to 278.1 for erlotinib and 260.1 to 116.1 for (S)-(−)-Propranolol were monitored. […] Nitrogen was produced by a high purity nitrogen generator (CMC Instruments) and applied to curtain, collision and drying gasses. De-clustering potentials, collision energy and collision exit potential were as follows: 26 V, 39 V and 12 V for dasatinib, 16 V, 43 V and 26 V for erlotinib and 61 V, 23 V and 14 V for (S)-(−)-Propranolol.

CYP3A4 and CYP3A7 [3] = conditions: for expression of CYP3A4 and CYP3A7 in drug-resistant cell lines: PACO2, PACO7 after 8 weeks of increasing doses; for expression of CYP3A4 and CYP3A7 in response to drug: PACO2, PACO10, PACO14, PACO9, 10 μM drug
[4] = test system: tumors derived from exocrine-like PACO lines (PACO10, PACO14); assay: In vivo drug treatment of subcutaneous shCYP3A5 or shScr PACO tumors; design: species or system NSG mice; conditions: 100 mg/kg oral gavage, 5 days on / 2 days rest, 14 days
Method: Tumors were established by subcutaneously injecting 5×10^5 shCYP3A5 or shScr PACO cells into female NOD.Cg-Prkdc^scid II2rg^tm1Wjl (NSG) mice (n=48) using Matrigel (2 mg/ml) in a total injection volume of 100 μl. After the tumors reached a size of approximately 200 mm^3, mice were randomized into eight groups (n=6 each) for drug administration. Erlotinib was prepared in 0.5% methylcellulose, 0.1% Tween 80 and 99.4% water for injection (WFI). Erlotinib (100 mg/kg) or vehicle were then administrated by oral gavage at 5 consecutive days followed by 2 days of rest, for duration of 14 days. Tumor volume was determined twice weekly by calliper measurements and calculated according to the formula (length×height×width)×(π/6). Tumor growth was calculated for each individual tumor by normalizing to the tumor volume at day 0. After two weeks of treatment, mice were sacrificed and tumors were resected for further analysis.

[5] = test system: classical and QM-PDA PACO cells; assay: Drug treatment assay, relative cell viability (CellTiterBlue); type: cell-based, human; conditions: for drug sensitivity after ketoconazole pre-treatment (relative cell viability, activity area): QM-PDA (PACO9) and classical (PACO2), 100 nM ketoconazole pre-treatment for 2 hours vs vehicle, 48 hours; for drug sensitivity (relative cell viability): classical and QM-PDA subtype PACO lines, 1 μM or 10 μM, after 48 hours
Method: as §1

[6] = test system: drug-resistant sublines of classical (PACO2) and QM-PDA (PACO7) cells; assay: Drug sensitivity of drug-resistant sublines from 8-week treatment; conditions: for resistance of sublines to the drug used for long-term treatment: PACO2, PACO7 treated with increasing doses over 8 weeks, vs DMSO-control treated parental lines
SNU5 cells = assay: Paclitaxel sensitivity of gastric cancer cells; type: cell-based, human; conditions: gastric cancer cell line SNU5
HepG2 cells = assay: Paclitaxel sensitivity of hepatocellular carcinoma cells
CYP3A4 and CYP3A7 [7] = assay: CYP3A4 and CYP3A7 expression in xenografts after paclitaxel treatment in vivo (qRT-PCR); design: species or system mice; conditions: classical subtype (PACO17) xenografts; after 18 days of treatment; vs vehicle
CYP3A5 [8] = assay: CYP3A5 expression in xenografts after paclitaxel treatment in vivo (qRT-PCR, immunohistochemistry); design: species or system mice; conditions: classical subtype (PACO17) xenografts; after 18 days of treatment; vs vehicle
[9] = exocrine-like subtype PACO lines, 1 μM or 10 μM, after 48 hours

CYP3A5 mRNA expression in drug-resistant cell lines (CYP3A5 [1])	CYP3A5 expression in response to drug (CYP3A5 [1])	CYP3A5 mRNA and protein expression in response to drug (CYP3A5 [1])	expression of CYP3A4 and CYP3A7 in drug-resistant cell lines (CYP3A4 and CYP3A7 [3])	expression of CYP3A4 and CYP3A7 in response to drug (CYP3A4 and CYP3A7 [3])	SMILES	drug sensitivity after CYP3A5 siRNA knockdown (relative cell viability, activity area) (exocrine-like PACO cells)	metabolism of drug in the absence of CYP3A5 (CYP3A5 [2])	conversion of drug (disappearance of unmodified structure from supernatant) (CYP3A5 [2])	drug sensitivity (relative cell viability) (exocrine-like PACO cells; [9])	drug sensitivity after ketoconazole pre-treatment (relative cell viability, activity area) [5]	drug sensitivity (relative cell viability) [5]	resistance of sublines to the drug used for long-term treatment [6]	also measured
significantly higher	did not prompt CYP3A5 expression	strongly induced	not detectable	not induced	C#Cc1cccc(Nc2ncnc3cc(OCCOC)c(OCCOC)cc23)c1 [erlotinib]	dramatically sensitized	completely abolished	rapid conversion	almost completely resistant	remained unchanged	sensitive	significantly higher resistance	drug sensitivity after ketoconazole pre-treatment (relative cell viability, activity area) (exocrine-like PACO cells; exocrine-like (PACO14), 100 nM ketoconazole pre-treatment for 2 hours vs vehicle, 48 hours): significantly more sensitive; growth of CYP3A5 knockdown tumors ([4]; shCYP3A5 tumors): completely inhibited; effect on growth of control tumors ([4]; shScr control tumors): no effect
	did not prompt CYP3A5 expression	did not lead to the induction of CYP3A5		not induced	Nc1ccn([C@@H]2O[C@H](CO)[C@@H](O)C2(F)F)c(=O)n1 [gemcitabine]	remained unchanged			almost completely resistant	remained unchanged	sensitive		
					CCc1c2c(nc3ccc(OC(=O)N4CCC(N5CCCCC5)CC4)cc13)-c1cc3c(c(=O)n1C2)COC(=O)[C@]3(O)CC [irinotecan]								drug sensitivity after knockdown of CYP3A5 (exocrine-like PACO cells): sensitive; drug sensitivity (relative cell viability) (exocrine-like PACO cells; exocrine-like subtype compared to the other two subtypes, 1 μM and 10 μM, 48 h and 7 d): highly resistant
					CC(=O)N1CCN(c2ccc(OCC3COC(Cn4ccnc4)(c4ccc(Cl)cc4Cl)O3)cc2)CC1 (stereo not drawn) [ketoconazole]								sensitization to paclitaxel by inhibition of CYP activity (SNU5 cells): strongly sensitized; sensitization to paclitaxel by inhibition of CYP function (HepG2 cells; HepG2 cells, compared with CYP3A5 knockdown): even stronger sensitization; sensitization of paclitaxel-resistant cell lines by co-treatment ([6]; paclitaxel-resistant PACO2 and PACO7 sublines, co-treatment with paclitaxel): comparable sensitization
significantly higher			not detectable		CC(=O)O[C@H]1C(=O)[C@@]2(C)[C@H]([C@H](OC(=O)c3ccccc3)[C@]3(O)C[C@H](OC(=O)[C@H](O)[C@@H](NC(=O)c4ccccc4)c4ccccc4)C(C)=C1C3(C)C)[C@]1(OC(C)=O)CO[C@@H]1C[C@@H]2O [paclitaxel]							significantly higher resistance	expression of CYP3A4 and CYP3A7 in treated xenografts (CYP3A4 and CYP3A7 [7]): not upregulated; CYP3A5 expression in treated xenografts (CYP3A5 [8]): upregulation of CYP3A5; sensitivity to drug (HepG2 cells; HepG2 cells treated with non-targeting control siRNA): almost completely resistant; sensitivity to drug after knockdown of CYP3A5 (HepG2 cells; HepG2 cells, siRNA-mediated knockdown of CYP3A5): significantly sensitized

SMILES	CYP3A5 mRNA expression in drug-resistant cell lines (CYP3A5 [1])	CYP3A5 expression in response to drug (CYP3A5 [1])	CYP3A5 mRNA and protein expression in response to drug (CYP3A5 [1])	expression of CYP3A4 and CYP3A7 in drug-resistant cell lines (CYP3A4 and CYP3A7 [3])	expression of CYP3A4 and CYP3A7 in response to drug (CYP3A4 and CYP3A7 [3])	drug sensitivity after CYP3A5 siRNA knockdown (relative cell viability, activity area) (exocrine-like PACO cells)	metabolism of drug in the absence of CYP3A5 (CYP3A5 [2])	conversion of drug (disappearance of unmodified structure from supernatant) (CYP3A5 [2])	drug sensitivity (relative cell viability) (exocrine-like PACO cells; [9])	drug sensitivity after ketoconazole pre-treatment (relative cell viability, activity area) [5]	drug sensitivity (relative cell viability) [5]	resistance of sublines to the drug used for long-term treatment [6]	also measured
Cc1nc(Nc2ncc(C(=O)Nc3c(C)cccc3Cl)s2)cc(N2CCN(CCO)CC2)n1 [dasatinib]	significantly higher	did not prompt CYP3A5 expression	strongly induced	not detectable	not induced	dramatically sensitized	completely abolished	rapid conversion					
